Laboratory results as given in the CheMixHub ionic liquid set.
± gives the uncertainty stated by the source.

Test: xn = mol fraction of the nth substance listed

CN(C)c1ccccc1 + CCCC[n+]1ccn(C)c1.O=S(=O)([O-])C(F)(F)F
100 kPa
Conditions | viscosity [mPa·s]
288.15 K, x1 = 0.2998 | 54 ± 2.4
288.15 K, x1 = 0.397 | 39.3 ± 1.8
288.15 K, x1 = 0.6997 | 10.05 ± 0.45
288.15 K, x1 = 1 | 1.536 ± 0.068
293.15 K, x1 = 1 | 1.415 ± 0.063
298.15 K, x1 = 0.397 | 25.9 ± 1.1
298.15 K, x1 = 0.8945 | 2.63 ± 0.12
308.15 K, x1 = 0.2 | 30.7 ± 1.4
313.15 K, x1 = 0.2 | 25.2 ± 1.1
313.15 K, x1 = 0.6997 | 5.03 ± 0.22
318.15 K, x1 = 0.1 | 27.1 ± 1.2
318.15 K, x1 = 0.6997 | 4.54 ± 0.2
318.15 K, x1 = 0.8945 | 1.828 ± 0.081
323.15 K, x1 = 1 | 0.92 ± 0.041
328.15 K, x1 = 0.1 | 19.6 ± 0.87
328.15 K, x1 = 0.8945 | 1.569 ± 0.07
333.15 K, x1 = 0.1 | 16.91 ± 0.75
333.15 K, x1 = 0.5045 | 6.71 ± 0.3
333.15 K, x1 = 0.8945 | 1.463 ± 0.065

CC(=O)O.CC(=O)[O-].CC[NH+](CC)CCO + CCCC[n+]1ccn(C)c1.COP(=O)([O-])OC
101 kPa
Conditions | viscosity [mPa·s]
278.15 K, x1 = 0.3316 | 453 ± 17
278.15 K, x1 = 0.5275 | 335 ± 11
283.15 K, x1 = 0.7493 | 220 ± 6.5
288.15 K, x1 = 0.5275 | 168.3 ± 4.1
293.15 K, x1 = 0.0748 | 568 ± 20
293.15 K, x1 = 0.7493 | 116.3 ± 2.9
298.15 K, x1 = 0.5275 | 93.7 ± 2
298.15 K, x1 = 0.6343 | 91.1 ± 2
298.15 K, x1 = 0.8567 | 76.9 ± 1.9
303.15 K, x1 = 0.0748 | 283.6 ± 7.4
303.15 K, x1 = 1 | 59.6 ± 1.6
308.15 K, x1 = 0.3316 | 74.6 ± 1.4
308.15 K, x1 = 0.7493 | 53.4 ± 1.2
313.15 K, x1 = 0.5275 | 44.19 ± 0.86
313.15 K, x1 = 0.6343 | 42.6 ± 0.9
318.15 K, x1 = 0.8567 | 27.56 ± 0.67
323.15 K, x1 = 0.5275 | 30.28 ± 0.59
323.15 K, x1 = 0.6343 | 29.17 ± 0.61
323.15 K, x1 = 0.8567 | 22.27 ± 0.54
328.15 K, x1 = 0.0748 | 73.3 ± 1
328.15 K, x1 = 0.4263 | 27.4 ± 0.5
328.15 K, x1 = 0.7493 | 23.34 ± 0.53
333.15 K, x1 = 0.6343 | 18.02 ± 0.38
333.15 K, x1 = 0.7493 | 17.41 ± 0.39
338.15 K, x1 = 0.0748 | 47.83 ± 0.65
343.15 K, x1 = 0.7493 | 13.68 ± 0.31
348.15 K, x1 = 0.6343 | 12.02 ± 0.25
348.15 K, x1 = 1 | 8.93 ± 0.23
358.15 K, x1 = 0.5275 | 9.3 ± 0.18
358.15 K, x1 = 0.8567 | 6.94 ± 0.17
358.15 K, x1 = 1 | 6.65 ± 0.17
363.15 K, x1 = 1 | 5.8 ± 0.15
368.15 K, x1 = 0.5275 | 7.03 ± 0.14
368.15 K, x1 = 0.6343 | 6.64 ± 0.14

CC[n+]1ccn(C)c1.N#C[S-] + CCO
101 kPa
Conditions | viscosity [mPa·s]
283.15 K, x1 = 0.8045 | 22.86 ± 0.49
283.15 K, x1 = 0.8971 | 29.28 ± 0.55
293.15 K, x1 = 0.8971 | 20.53 ± 0.49
303.15 K, x1 = 0.0504 | 1.31 ± 0.07
303.15 K, x1 = 0.2012 | 2.31 ± 0.07
303.15 K, x1 = 0.951 | 17.12 ± 0.47
313.15 K, x1 = 0.0504 | 1.1 ± 0.07
313.15 K, x1 = 0.6016 | 6.04 ± 0.09
313.15 K, x1 = 0.7018 | 7.47 ± 0.1
313.15 K, x1 = 0.8971 | 11.5 ± 0.45
313.15 K, x1 = 1 | 14.3 ± 0.46
323.15 K, x1 = 0.7018 | 6.02 ± 0.09
323.15 K, x1 = 0.951 | 10.17 ± 0.14

CCCC[n+]1ccccc1.N#C[N-]C#N + O
100 kPa
Conditions | electrical conductivity [S/m] | viscosity [mPa·s]
298.15 K, x1 = 0.9563 | – | 30.06 ± 0.64
298.15 K, x1 = 0.9642 | 0.931 ± 0.022 | –
303.15 K, x1 = 0.9189 | 1.17 ± 0.028 | –
303.15 K, x1 = 0.9338 | 1.14 ± 0.027 | –
303.15 K, x1 = 0.9488 | 1.12 ± 0.027 | –
303.15 K, x1 = 0.9563 | – | 24.67 ± 0.53
313.15 K, x1 = 0.926 | – | 16.69 ± 0.36
313.15 K, x1 = 0.9563 | – | 17.57 ± 0.37
313.15 K, x1 = 0.9642 | 1.54 ± 0.037 | –
318.15 K, x1 = 0.926 | – | 14.38 ± 0.31
318.15 K, x1 = 0.9338 | 1.89 ± 0.046 | –
318.15 K, x1 = 0.9722 | – | 15.54 ± 0.33
323.15 K, x1 = 0.9563 | – | 12.69 ± 0.27
323.15 K, x2 = 0.01155 | – | 13.56 ± 0.29
328.15 K, x1 = 0.926 | – | 10.62 ± 0.23
328.15 K, x1 = 0.9412 | – | 10.83 ± 0.23
333.15 K, x1 = 0.9488 | 2.75 ± 0.061 | –
333.15 K, x1 = 0.9563 | – | 9.77 ± 0.21
333.15 K, x1 = 0.9642 | 2.7 ± 0.061 | –
338.15 K, x1 = 0.9412 | – | 8.47 ± 0.18

CCCCCCCCn1cc[n+](C)c1.[Cl-] + CN1CCCC1=O
100 kPa
Conditions | viscosity [mPa·s]
293.15 K, x2 = 0.3221 | 787 ± 74
298.15 K, x2 = 0.3221 | 541 ± 46
308.15 K, x2 = 0.7195 | 14.86 ± 0.63
308.15 K, x2 = 0.9085 | 3.35 ± 0.14
318.15 K, x2 = 0.21 | 324 ± 23
318.15 K, x2 = 0.5321 | 43.3 ± 1.8
318.15 K, x2 = 0.8143 | 5.54 ± 0.23
323.15 K, x2 = 0.21 | 244 ± 16
323.15 K, x2 = 0.8143 | 4.96 ± 0.21
328.15 K, x2 = 0.21 | 185 ± 11

CCCCCCCCCCCCCCCC[n+]1ccccc1.[Br-] + O
100 kPa, x1 = 9.009e-05
Conditions | electrical conductivity [S/m]
298.15 K | 0.021 ± 0.001
303.15 K | 0.021 ± 0.001
308.15 K | 0.022 ± 0.001
313.15 K | 0.024 ± 0.001
